This note sets out measurements from patent publication US4346102A, “3H-Dihydrofuranone-2 derivatives and pharmaceutical use thereof” (Delalande S.A., priority 1979, dated 1982).

A word on the LD50: it is the dose at which mortality reaches 50%. High values mean lower toxicity, low ones greater toxicity.

Data set [1] is described as follows: Acute toxicity, LD 50 in mice, oral. To be noted: mouse, in vivo.
Data set [2] concerns ptosis (reserpine). Nature of the data set: Test A: antagonism with respect to ptosis observed one hour after intravenous injection of reserpine in mice. It is filed as in vivo. The settings on record: Mus musculus, 1 h, read-out: Test A ED 50.
Experimental: Test A: Antagonism with respect to ptosis observed one hour after an intravenous injection (2 mg/kg) of reserpine given to mice according to the protocol described by GOURET C. and THOMAS J. in J. Pharmacol. (Paris, (1973), 4, 401.
Data set [3] has as its system generalized trembling caused by dl-5-hydroxytryptophane. The data set is described as follows: Test B: potentialization in mice of generalized trembling caused by dl-5-hydroxytryptophane. It is filed as in vivo. The settings on record: Mus musculus, read-out: Test B ED 50. The text has this: Test B: Potentialization in mice of generalized trembling caused by an intraperitoneal injection of dl-5-hydroxytryptophane, according to the protocol described by GOURET C. and RAYNAUD G. in J. Pharmacol. (Paris), (1974), 5, 231.

Setting [4] is: mice, oral, ptosis one hour after reserpine 2 mg/kg i.v.
[5] abbreviates: mice, oral, dl-5-hydroxytryptophane i.p.

Like-named read-outs stand apart in the source and are kept apart here.

Compound `COC[C@H]1C[C@@H](c2ccc(OCCCCCl)cc2)C(=O)O1` (relative stereo) [3 B] returned an LD50 in data set [1] of 2000 mg/kg. Also, the ED50 is 3.6 mg/kg in data set [2] (setting [4]) and 1.7 mg/kg in data set [3] (setting [5]).
As to `COC[C@H]1C[C@@H](c2ccc(OCc3ccccc3)cc2)C(=O)O1` (relative stereo) [5 B], the results for the ED50 in data set [2] (setting [4]) and in data set [3] (setting [5]) were 11.5 mg/kg and 15.5 mg/kg, respectively.
Take `O=C1O[C@@H](CO)C[C@@H]1c1ccc(OCc2cccc([N+](=O)[O-])c2)cc1` (relative stereo) [6 A]: the LD50 in data set [1] was greater than 2000 mg/kg. The ED50 turned out to be 4.4 mg/kg in data set [2] (setting [4]) and 5.8 mg/kg in data set [3] (setting [5]).
The compound `O=C1O[C@@H](CO)C[C@H]1c1ccc(OCc2cccc([N+](=O)[O-])c2)cc1` (relative stereo) [6 B] had an LD50 in data set [1] greater than 2000 mg/kg. For the same compound, the values for the ED50 in data set [2] (setting [4]) and in data set [3] (setting [5]) were 1.6 mg/kg and 2 mg/kg, respectively.
For `CC(=O)OC[C@H]1C[C@H](c2ccc(OCc3cccc([N+](=O)[O-])c3)cc2)C(=O)O1` (relative stereo) [7 A], the ED50 in data set [2] (setting [4]) was 12.5 mg/kg; in data set [3] (setting [5]), 10 mg/kg.
For the compound `CC(=O)OC[C@H]1C[C@@H](c2ccc(OCc3cccc([N+](=O)[O-])c3)cc2)C(=O)O1` (relative stereo) [7 B], the LD50 in data set [1] was greater than 2000 mg/kg. Moreover, the ED50 in data set [2] (setting [4]) was found to be 2.5 mg/kg; in data set [3] (setting [5]), 3.2 mg/kg.
Take `COC[C@H]1C[C@H](c2ccc(OCc3cccc([N+](=O)[O-])c3)cc2)C(=O)O1` (relative stereo) [8 A]: in data set [1], the LD50 is greater than 2000 mg/kg. The figures for the ED50 in data set [2] (setting [4]) and in data set [3] (setting [5]) were 6.2 mg/kg and 4.4 mg/kg, respectively.
`COC[C@H]1C[C@@H](c2ccc(OCc3cccc([N+](=O)[O-])c3)cc2)C(=O)O1` (relative stereo) [8 B]: the LD50 in data set [1] is 2000 mg/kg. Besides, the ED50 was determined as 0.58 mg/kg in data set [2] (setting [4]) and 0.29 mg/kg in data set [3] (setting [5]).
The like results for `COC[C@H]1C[C@H](c2ccc(OCc3cccc(Cl)c3)cc2)C(=O)O1` (relative stereo) [10 A] were, in that order, greater than 2000 mg/kg, 24 mg/kg and 10 mg/kg.
In the case of `COC[C@H]1C[C@@H](c2ccc(OCc3cccc(Cl)c3)cc2)C(=O)O1` (relative stereo) [10 B], in data set [1], the LD50 was greater than 2000 mg/kg. Further, the ED50 in data set [2] (setting [4]) worked out at 15 mg/kg; in data set [3] (setting [5]), 10 mg/kg.
For `COC[C@@H]1C[C@@H](c2ccc(OCc3cccc(C#N)c3)cc2)C(=O)O1` (relative stereo) [13 A], in data set [1], the LD50 is greater than 2000 mg/kg. Further, the ED50 is 12 mg/kg in data set [2] (setting [4]) and 20 mg/kg in data set [3] (setting [5]).
The like results for `COC[C@@H]1C[C@H](c2ccc(OCc3cccc(C#N)c3)cc2)C(=O)O1` (relative stereo) [13 B] were, in that order, greater than 2000 mg/kg, 0.9 mg/kg and 1.7 mg/kg.
The like results for `COC[C@H]1C[C@H](c2ccc(OCc3cc(C#N)cc([N+](=O)[O-])c3)cc2)C(=O)O1` (relative stereo) [17 A] were, in that order, greater than 2000 mg/kg, 5.5 mg/kg and 6.4 mg/kg.
Take `COC[C@H]1C[C@@H](c2ccc(OCc3cc(C#N)cc([N+](=O)[O-])c3)cc2)C(=O)O1` (relative stereo) [17 B]: in data set [1], the LD50 amounted to 1700 mg/kg. Besides, the ED50 in data set [2] (setting [4]) amounted to 0.32 mg/kg; in data set [3] (setting [5]), 0.55 mg/kg.
For the compound `COC[C@H]1C[C@H](c2ccc(OCc3ccc(F)c(Cl)c3)cc2)C(=O)O1` (relative stereo) [18 A], the results for the ED50 in data set [2] (setting [4]) and in data set [3] (setting [5]) were 23 mg/kg and 16 mg/kg, respectively.
In turn, `COC[C@H]1C[C@@H](c2ccc(OCc3ccc(F)c(Cl)c3)cc2)C(=O)O1` (relative stereo) [18 B] gave an LD50 in data set [1] greater than 2000 mg/kg. Further, the ED50 in data set [2] (setting [4]) stood at 5.4 mg/kg; in data set [3] (setting [5]), 3.1 mg/kg.
`N[C@@H]1C[C@H]1c1ccccc1` (relative stereo) [TRANYLCYPROMINE, reference compound] displayed an LD50 in data set [1] of 58 mg/kg. The ED50 in data set [2] (po) was found to be 1.55 mg/kg; in data set [3] (po), 1.37 mg/kg.
`CC(C)CCOc1ccc(C2CC(CO)OC2=O)cc1` (stereo not drawn) [Compound 1]: the values for the ED50 in data set [2] (setting [4]) and in data set [3] (setting [5]) were 19 mg/kg and 14 mg/kg, respectively.
With `O=C1OC(CO)CC1c1ccc(OCC2CCCCC2)cc1` (stereo not drawn) [Compound 2], the LD50 in data set [1] was greater than 2000 mg/kg. Also, the figures for the ED50 in data set [2] (setting [4]) and in data set [3] (setting [5]) were 5.5 mg/kg and 9 mg/kg, respectively.
The compound `COCC1CC(c2ccc(OCCCCC#N)cc2)C(=O)O1` (stereo not drawn) [Compound 4] yielded an LD50 in data set [1] greater than 2000 mg/kg. The ED50 was determined as 0.3 mg/kg in data set [2] (setting [4]) and 0.19 mg/kg in data set [3] (setting [5]).
Take `O=C1OC(CO)CC1c1ccc(OCc2cccc([N+](=O)[O-])c2)cc1` (stereo not drawn) [Compound 6, 3-para(metanitrobenzyloxy)phenyl-5-hydroxymethyl-3H-dihydrofuranone-2]: the ED50 in data set [2] (setting [4]) amounted to 1.4 mg/kg; in data set [3] (setting [5]), 1.5 mg/kg.
For the compound `COCC1C=C(c2ccc(OCc3cccc([N+](=O)[O-])c3)cc2)C(=O)O1` (stereo not drawn) [Compound 9], the LD50 in data set [1] is greater than 2000 mg/kg. In addition, the ED50 in data set [2] (setting [4]) came to 0.22 mg/kg.
On to `COCC1C=C(c2ccc(OCc3cccc(Cl)c3)cc2)C(=O)O1` (stereo not drawn) [Compound 11], for which the LD50 in data set [1] is greater than 2000 mg/kg. Further, the ED50 in data set [2] (setting [4]) was 2.3 mg/kg; in data set [3] (setting [5]), 1.6 mg/kg.
For the compound `N#Cc1cccc(COc2ccc(C3CC(CO)OC3=O)cc2)c1` (stereo not drawn) [Compound 12], the ED50 in data set [2] (setting [4]) was found to be 10 mg/kg; in data set [3] (setting [5]), 16 mg/kg.
`COCC1C=C(c2ccc(OCc3cccc(C#N)c3)cc2)C(=O)O1` (stereo not drawn) [Compound 14, 3-para(metacyanobenzyloxy)-phenyl-5-methoxymethyl-5H-furanone-2]: the ED50 in data set [2] (setting [4]) was determined as 0.68 mg/kg; in data set [3] (setting [5]), 0.55 mg/kg.
As for `COCC1CC(c2ccc(OCc3cccnc3)cc2)C(=O)O1` (stereo not drawn) [Compound 15], the ED50 in data set [2] (setting [4]) amounted to 5.8 mg/kg; in data set [3] (setting [5]), 12 mg/kg.
For `N#Cc1cc(COc2ccc(C3CC(CO)OC3=O)cc2)cc([N+](=O)[O-])c1` (stereo not drawn) [Compound 16], the LD50 in data set [1] is greater than 2000 mg/kg. Besides, the ED50 in data set [2] (setting [4]) amounted to 1.2 mg/kg; in data set [3] (setting [5]) it was 3.5 mg/kg.
Regarding `COCC1C=C(c2ccc(OCc3ccc(F)c(Cl)c3)cc2)C(=O)O1` (stereo not drawn) [Compound 19], the LD50 in data set [1] was greater than 2000 mg/kg. The ED50 was found to be 2.1 mg/kg in data set [2] (setting [4]) and 2.4 mg/kg in data set [3] (setting [5]).
In data set [1], `COCC1C=C(c2ccc(OCc3ccccc3)cc2)C(=O)O1` (stereo not drawn) [Compound 20] came in with an LD50 greater than 2000 mg/kg. The figures for the ED50 in data set [2] (setting [4]) and in data set [3] (setting [5]) were 4.4 mg/kg and 4 mg/kg, respectively.
`O=C(CCNNC(=O)c1ccncc1)NCc1ccccc1` [NIALAMIDE, reference compound] yielded an LD50 in data set [1] of 1100 mg/kg. Besides, the values for the ED50 in data set [2] (po) and in data set [3] (po) were 4.5 mg/kg and 5.2 mg/kg, respectively.
As for `C#CCN(C)Cc1ccccc1` [PARGYLINE, reference compound], the LD50 in data set [1] worked out at 480 mg/kg. The ED50 in data set [2] (setting [4]) is 34 mg/kg; in data set [3] (setting [5]) it was 48 mg/kg.
In data set [1], `C#CCN(C)C(C)Cc1ccccc1` (stereo not drawn) [reference compound] came in with a median lethal dose (LD50) of 520 mg/kg. In addition, the values for the ED50 in data set [2] (po) and in data set [3] (po) were 9 mg/kg and 3 mg/kg, respectively.
